Laboratory results published in ChEMBL document CHEMBL5550112, “Development of a fluorescent ligand that can illuminate nuclear G-quadruplexes and modulate oncogene expression” (Bioorg Med Chem, 2024).
The source made the active and inactive calls. The rule behind the calls is not given here.

Columns and labels:
Quadruplex DNA [1] = test: Binding affinity to c-MYC G-quadruplex DNA (unknown origin) assessed as dissociation constant by fluorescence spectrophotometric analysis; format: nucleic-acid assay
Quadruplex DNA [2] = test: Binding affinity to 3'-Cy5-labelled c-MYC G-quadruplex DNA (unknown origin) assessed as decrease in Cy5 fluorescence upto 5 uM by fluorescence quenching analysis; format: nucleic-acid assay
Albumin = Albumin (Bos taurus, UniProt P02769); test: Binding affinity to bovine serum albumin assessed as increase in fluorescence intensity at 5 uM by fluorescence spectrophotometric analysis; format: cell-free; details: cattle
Quadruplex DNA [3] = test: Binding affinity to G-quadruplex DNA in human MDA-MB-231 cells assessed as increase in fluorescence at 2 uM incubated for 30 mins by DNase I digestion based confocal microscopic analysis; format: cell-based
MDA-MB-231 [4] = test: Induction of cell cycle arrest in human MDA-MB-231 cells assessed as accumulation of cells at S phase at 10 uM incubated for 24 hrs by flow cytometry (reference value: 13 %); format: functional
Quadruplex DNA [5] = test: Binding affinity to KRAS G-quadruplex DNA (unknown origin) assessed as increase in fluorescence by measuring red shift at 5 uM by fluorescence titration spectra analysis; format: nucleic-acid assay
Quadruplex DNA [6] = test: Binding affinity to c-MYC G-quadruplex DNA (unknown origin) assessed as imino proton signal by NMR spectral analysis; format: nucleic-acid assay
Quadruplex DNA [7] = test: Displacement of […] from G-quadruplex DNA in human MDA-MB-231 cells assessed as increase in fluorescence at 2 uM preincubated for 30 mins followed by PDS addition and measured after 20 mins by Hoechst 33342 staining based confocal microscopic analysis; format: cell-based; details: time 50.0 min
MDA-MB-231 [8] = test: Induction of apoptosis in human MDA-MB-231 cells assessed as downregulation of KRAS protein expression at 10 to 20 uM incubated for 24 hrs by Western blot analysis; format: functional, cell-based; details: dose 10-20 µM
Quadruplex DNA [9] = test: Binding affinity to G-quadruplex DNA in human MDA-MB-231 cells at 2 uM incubated for 30 mins by Hoechst 33342 staining based confocal microscopic analysis; format: cell-based
Quadruplex DNA [10] = test: Binding affinity to Parallel EAD G-quadruplex DNA (unknown origin) assessed as increase in fluorescence intensity at 5 uM by fluorescence spectrophotometric analysis; format: nucleic-acid assay
MDA-MB-231 [11] = test: Induction of cell cycle arrest in human MDA-MB-231 cells assessed as accumulation of cells at S phase at 20 uM incubated for 24 hrs by flow cytometry (reference value: 13 %); format: functional
MDA-MB-231 [12] = test: Induction of apoptosis in human MDA-MB-231 cells assessed as downregulation of c-MYC gene expression at 10 to 20 uM incubated for 24 hrs by RT-PCR analysis; format: functional, cell-based; details: dose 10-20 µM
Quadruplex DNA [13] = test: Binding affinity to Antiparallel TBA G-quadruplex DNA (unknown origin) assessed as increase in fluorescence intensity at 5 uM by fluorescence spectrophotometric analysis; format: nucleic-acid assay
Quadruplex DNA [14] = test: Binding affinity to G-quadruplex DNA in human MDA-MB-231 cells assessed as increase in fluorescence at 2 uM incubated for 30 mins in presence of dimethyl sulfate by Hoechst 33342 staining based confocal microscopic analysis; format: cell-based
MDA-MB-231 [15] = test: Induction of cell death in human MDA-MB-231 cells cultured as 3D tumor spheroids assessed as increase in red fluorescence intensity at 20 uM incubated for 7 days by propidium iodide staining based imaging analysis; format: functional; details: time 7.0 day
Quadruplex DNA [16] = test: Binding affinity to Parallel CHL1 G-quadruplex DNA (unknown origin) assessed as increase in fluorescence intensity at 5 uM by fluorescence spectrophotometric analysis; format: nucleic-acid assay
MDA-MB-231 [17] = test: Induction of apoptosis in human MDA-MB-231 cells assessed as downregulation of c-MYC protein expression at 10 to 20 uM incubated for 24 hrs by Western blot analysis; format: functional, cell-based; details: dose 10-20 µM
MDA-MB-231 [18] = test: Induction of cell cycle arrest in human MDA-MB-231 cells assessed as accumulation of cells at G0-G1 phase at 20 uM incubated for 24 hrs by flow cytometry (reference value: 69.6 %); format: functional
MDA-MB-231 [19] = test: Antiproliferative activity against human MDA-MB-231 cells assessed as inhibition of cell growth incubated for 24 hrs by CCK-8 assay; format: functional, cell-based; details: MDA-MB-231, 24 h
Quadruplex DNA [20] = test: Stabilization of FAM/TAMRA-labelled KRAS G-quadruplex DNA (unknown origin) assessed as change in melting temperature in presence of duplex DNA by FRET assay; format: nucleic-acid assay
MDA-MB-231 [21] = test: Induction of cell cycle arrest in human MDA-MB-231 cells assessed as accumulation of cells at G0-G1 phase at 10 uM incubated for 24 hrs by flow cytometry (reference value: 69.6 %); format: functional
DNA [22] = test: Binding affinity to Duplex DNA (unknown origin) assessed as fluorescence quantum yield by fluorescence spectrophotometric analysis; format: nucleic-acid assay
DNA [23] = test: Binding affinity to Duplex DNA (unknown origin) assessed as increase in fluorescence by measuring red shift at 5 uM by fluorescence titration spectra analysis; format: nucleic-acid assay
Calf thymus DNA = test: Binding affinity to calf thymus DNA (unknown origin) assessed as increase in fluorescence intensity at 5 uM by fluorescence spectrophotometric analysis; details: Bos taurus
Quadruplex DNA [24] = test: Binding affinity to c-MYC G-quadruplex DNA (unknown origin) assessed as increase in fluorescence by measuring red shift at 5 uM by fluorescence titration spectra analysis; format: nucleic-acid assay
MDA-MB-231 [25] = test: Induction of cell cycle arrest in human MDA-MB-231 cells assessed as accumulation of cells at sub-G1 phase at 15 uM incubated for 24 hrs by flow cytometry (reference value: 0.6 %); format: functional
MDA-MB-231 [26] = test: Inhibition of colony formation in human MDA-MB-231 cells at 1.5 to 6 uM incubated for 3 days by crystal violet staining based analysis; format: functional, cell-based; details: dose 1.5-6 µM, time 3.0 day
Quadruplex DNA [27] = test: Binding affinity to Parallel c-KIT1 G-quadruplex DNA (unknown origin) assessed as increase in fluorescence intensity at 5 uM by fluorescence spectrophotometric analysis; format: nucleic-acid assay
Quadruplex DNA [28] = test: Binding affinity to Parallel KRAS G-quadruplex DNA (unknown origin) assessed as increase in fluorescence intensity at 5 uM by fluorescence spectrophotometric analysis; format: nucleic-acid assay
DNA [29] = test: Binding affinity to Duplex DNA (unknown origin) assessed as hypochromic red shift at 5 uM by absorption spectra analysis; format: nucleic-acid assay
Quadruplex DNA [30] = test: Binding affinity to Parallel c-KIT2 G-quadruplex DNA (unknown origin) assessed as increase in fluorescence intensity at 5 uM by fluorescence spectrophotometric analysis; format: nucleic-acid assay
Quadruplex DNA [31] = test: Binding affinity to Antiparallel Bm G-quadruplex DNA (unknown origin) assessed as increase in fluorescence intensity at 5 uM by fluorescence spectrophotometric analysis; format: nucleic-acid assay
Quadruplex DNA [32] = test: Binding affinity to Parallel BCL2 G-quadruplex DNA (unknown origin) assessed as increase in fluorescence intensity at 5 uM by fluorescence spectrophotometric analysis; format: nucleic-acid assay

Albumin, sequence (P02769 whole entry): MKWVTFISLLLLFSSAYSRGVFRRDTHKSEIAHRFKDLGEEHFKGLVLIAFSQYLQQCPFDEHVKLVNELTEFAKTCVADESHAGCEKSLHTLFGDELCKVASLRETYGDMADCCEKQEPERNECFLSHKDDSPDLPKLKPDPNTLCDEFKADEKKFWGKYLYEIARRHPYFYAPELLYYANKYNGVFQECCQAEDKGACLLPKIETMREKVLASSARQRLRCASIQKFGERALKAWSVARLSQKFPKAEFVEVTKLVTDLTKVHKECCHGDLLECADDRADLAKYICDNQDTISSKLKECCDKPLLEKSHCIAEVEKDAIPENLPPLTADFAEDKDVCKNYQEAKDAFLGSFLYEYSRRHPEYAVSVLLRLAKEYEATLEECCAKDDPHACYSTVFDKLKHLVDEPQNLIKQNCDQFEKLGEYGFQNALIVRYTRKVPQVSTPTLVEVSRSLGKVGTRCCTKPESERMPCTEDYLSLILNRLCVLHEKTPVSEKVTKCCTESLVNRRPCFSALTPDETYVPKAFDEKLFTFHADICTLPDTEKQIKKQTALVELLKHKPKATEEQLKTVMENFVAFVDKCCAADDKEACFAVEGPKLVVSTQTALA

In the case of CCn1c2ccccc2c2cc(/C=C/c3sc4ccccc4[n+]3C)ccc21.[I-], the Kd (Quadruplex DNA [1]) is reported as 0.7 µM, the Activity (Quadruplex DNA [2]) is reported as “Active” and the Activity (Albumin) is reported as “Not Active”. The Activity (Quadruplex DNA [3]) was “inactive”, the Activity (MDA-MB-231 [4]) was 14.5% and the Activity (Quadruplex DNA [5]) was “Active”. For the same molecule, the Activity (Quadruplex DNA [6]) was “Active”, the Activity (Quadruplex DNA [7]) was “inactive” and the Activity (MDA-MB-231 [8]) was “Active”. For the same molecule, the Activity (Quadruplex DNA [9]) was “Active”, the Activity (Quadruplex DNA [10]) was “Active” and the Activity (MDA-MB-231 [11]) was 8.6%. For the same molecule, the Activity (MDA-MB-231 [12]) was “Active”, the Activity (Quadruplex DNA [13]) was “Active” and the Activity (Quadruplex DNA [14]) was “inactive”. The Activity (MDA-MB-231 [15]) was “Active”, the Activity (Quadruplex DNA [16]) was “Active” and the Activity (MDA-MB-231 [17]) was “Active”. The Activity (MDA-MB-231 [18]) was 28.3%, the IC50 (MDA-MB-231 [19]) was 13.3 µM and the ΔTm (Quadruplex DNA [20]) was 14 °C. For the same molecule, the Activity (MDA-MB-231 [21]) was 66.5%, the Activity (DNA [22]) was 0.03 and the Activity (DNA [23]) was “Active”. The Activity (Calf thymus DNA) was “Active”, the Activity (Quadruplex DNA [24]) was “Active” and the Activity (MDA-MB-231 [25]) was 32.3%. For the same molecule, the inhibition (MDA-MB-231 [26]) was “Active”, the Activity (Quadruplex DNA [27]) was “Active” and the Activity (Quadruplex DNA [28]) was “Active”. The Activity (DNA [29]) was “Active”, the Activity (Quadruplex DNA [30]) was “Active” and the Activity (Quadruplex DNA [31]) was “Active”. The Activity (Quadruplex DNA [32]) was “Active”.
